Source: patent US20250066389A1, “HETEROCYCLIC AMIDES AND METHODS OF USING THE SAME” (Rgenta Therapeutics, Inc., priority 2021, published 2025)
Where a name gives a salt, the structure may show the parent alone.

System: PMS1
Assay: Mini-Gene Reporter Assay—PMS1 (firefly luciferase mini-gene reporter transiently transfected into HEK293 cells)
Type: cell-based
Details: Homo sapiens, mini-gene firefly luciferase reporter in HEK293 cells; for activation at 5 µM: read-out: PMS1 % Effect at 5 uM
In short: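 HEK293 cells transiently transfected with a mini-gene construct (skipped exon with flanking introns/exons fused to firefly luciferase, pcDNA3.1) are incubated with compounds in duplicate. Exon inclusion raises luminescence; EC50 fitted by Levenberg-Marquardt; effect also scored at 5 μM.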

| IC50 | SMILES | activation at 5 µM |
| --- | --- | --- |
|  | CCOc1cc2nn(C)cc2cc1C(=O)Nc1cnc(N2CCCNCC2)nc1 [Compound 485] | < 50% |
|  | CCOc1cn2nc(C)cc2cc1C(=O)Nc1cnc(N2C[C@H]3CNC[C@H]3C2)nc1 [Compound 590] | > 75% |
| < 1000 nM | CCOc1nc2nc(C)cn2cc1C(=O)Nc1ccc(N2C[C@@H](C)N[C@@H](C)C2)nn1 [Compound 714, N-(6-((3R,5S)-3,5-dimethylpiperazin-1-yl)pyridazin-3-yl)-7-ethoxy-2-methylimidazo[1,2-a]pyrimidine-6-carboxamide hydrochloride] |  |
|  | CCOc1cc2nn(C)cc2cc1C(=O)Nc1cnc(N2CCCC(NC)CC2)cn1 (stereo not shown) [Compound 317] | < 50% |
|  | CCOc1cn2nc(C)cc2cc1C(=O)Nc1cnc(N2CCN[C@@H](C)C2)nc1 [Compound 596] | 50 to 75% |
|  | CCOc1cc2nc(C)cn2cc1C(=O)Nc1cnc(N2CCC(NC)CC2)nc1 [Compound 648] | < 50% |
|  | CCOc1cc2nn(C)cc2cc1C(=O)Nc1cnc(N(C)CC2CCCN2)nc1 (stereo not shown) [Compound 446] | < 50% |
|  | CCOc1cn2nc(C)cc2cc1C(=O)Nc1cnc(NCC2CCNC2)cn1 (stereo not shown) [Compound 550] | > 75% |
|  | CCOc1cc2nn(C)cc2cc1C(=O)Nc1cnc(N2CCNC(C)C2)nc1 (stereo not shown) [Compound 487] | > 75% |
|  | COc1cc2nc(C)cn2cc1C(=O)Nc1ccc(N2CCN[C@@H](C(C)C)C2)cc1F [Compound 142, (S)-N-(2-fluoro-4-(3-isopropylpiperazin-1-yl)phenyl)-7-methoxy-2-methylimidazo[1,2-a]pyridine-6-carboxamide] | > 75% |
|  | CCOc1cc2nn(C)cc2cc1C(=O)Nc1cnc(N2CCC(N)CC2)cn1 [Compound 371] | > 75% |
|  | CCOc1cn2nc(C)cc2cc1C(=O)Nc1cnc(N2C[C@@H]3C[C@H]2CN3)cn1 [Compound 549] | > 75% |
| 1000 to 10000 nM | CCOc1cc2nc(C)cn2cc1C(=O)Nc1ccc(N2CC3CCC2C2CNCC32)nn1 (stereo not shown) [Compound 237] |  |
| 1000 to 10000 nM | CCOc1cc2nn(C)cc2cc1C(=O)Nc1ccc(N2CCN3CCC[C@@H]3C2)nn1 [Compound 739, (R)-6-ethoxy-N-(6-(hexahydropyrrolo[1,2-a]pyrazin-2(1H)-yl)pyridazin-3-yl)-2-methyl-2H-indazole-5-carboxamide formate] |  |
|  | CCOc1cc2nn(C)cc2cc1C(=O)Nc1cnc(NCC2=CCNCC2)nc1 [Compound 426] | < 50% |
|  | CCOc1cc2nn(C)cc2cc1C(=O)Nc1cnc(N2CCC3(CNCCO3)C2)nc1 (stereo not shown) [Compound 429] | < 50% |
| < 1000 nM | COc1cc2nn(C)cc2cc1C(=O)Nc1ccc(N2CCN[C@@H](C)C2)cc1F [Compound 114, (S)—N-(2-fluoro-4-(3-methylpiperazin-1-yl)phenyl)-6-methoxy-2-methyl-2H-indazole-5-carboxamide HCl Salt] |  |
|  | COc1cc2nc(C)cn2cc1C(=O)Nc1ccc(N2CC3CCCC(C2)NC3)cc1F (stereo not shown) [Compound 138, N-(4-(3,9-diazabicyclo[3.3.2]decan-3-yl)-2-fluorophenyl)-7-methoxy-2-methylimidazo[1,2-a]pyridine-6-carboxamide] | > 75% |
| < 1000 nM | Cc1cn2cc(C(=O)Nc3ccc(N4CCNCC4)cn3)c(OC3CC3)cc2n1 [Compound 712, 7-cyclopropoxy-2-methyl-N-(5-(piperazin-1-yl)pyridin-2-yl) imidazo[1,2-a]pyridine-6-carboxamide hydrochloride] |  |
|  | CCOc1cn2nc(C)cc2cc1C(=O)Nc1cnc(NC2CNCC23CCC3)cn1 (stereo not shown) [Compound 509] | < 50% |
|  | CCOc1cc2nn(C)cc2cc1C(=O)Nc1cnc(NC2CCC(C)NC2)cn1 (stereo not shown) [Compound 315] | < 50% |
|  | CCOc1cc2nn(C)cc2cc1C(=O)Nc1cnc(N2CC(N)CC2C)cn1 (stereo not shown) [Compound 321] | > 75% |
| 1000 to 10000 nM | COc1cc2nn(C)cc2cc1C(=O)Nc1cnc(N2CCN[C@@H](C)C2)cn1 [Compound 736, (S)-6-methoxy-2-methyl-N-(5-(3-methylpiperazin-1-yl)pyrazin-2-yl)-2H-indazole-5-carboxamide hydrochloride] |  |
| < 1000 nM | CCOc1cc2nc(C)cn2cc1C(=O)Nc1ccc(N2CCCNCC2)nn1 [Compound 294] |  |
|  | CCOc1cc2nn(C)cc2cc1C(=O)Nc1cnc(NC[C@H]2C[C@@](F)(CN)C2)cn1 [Compound 308] | < 50% |
|  | CCOc1cc2nn(C)cc2cc1C(=O)Nc1cnc(NC2CCCNC2C)cn1 (stereo not shown) [Compound 319] | < 50% |
|  | CCOc1cc2nc(C)cn2cc1C(=O)Nc1cnc(N2CC(N)C(C)(C)C2)cn1 (stereo not shown) [Compound 667] | > 75% |

| IC50 | SMILES | activation at 5 µM |
| --- | --- | --- |
|  | CCOc1cn2nc(C)cc2cc1C(=O)Nc1cnc(NCC2(F)CC(N)C2)cn1 (stereo not shown) [Compound 493] | < 50% |
| 1000 to 10000 nM | CCOc1cc2nc(C)cn2cc1C(=O)Nc1ccc(N2CCC(NC)CC2)nn1 [Compound 226] |  |
| 1000 to 10000 nM | CCOc1cc2nc(C)cn2cc1C(=O)Nc1ccc(N(C)C2CCCNCC2)nn1 (stereo not shown) [Compound 250] |  |
|  | CCOc1cc2nc(C)cn2cc1C(=O)Nc1cnc(N2CCNC(C)C2)cn1 (stereo not shown) [Compound 698] | > 75% |
|  | CCOc1cc2nn(C)cc2cc1C(=O)Nc1cnc(N2C3CCCC2CNC3)cn1 [Compound 314] | < 50% |
|  | CCOc1cn2nc(C)cc2cc1C(=O)Nc1cnc(N2CC3(CCNCC3)C2)nc1 [Compound 625] | 50 to 75% |
| < 1000 nM | CCOc1cc2nc(C)cn2cc1C(=O)Nc1ccc(N2CCNCC2)cc1F [Compound 126, 7-ethoxy-N-(2-fluoro-4-(piperazin-1-yl)phenyl)-2-methylimidazo[1,2-a]pyridine-6-carboxamide] |  |
|  | CCOc1cn2nc(C)cc2cc1C(=O)Nc1cnc(N(C)CCN2CCNCC2)nc1 [Compound 582] | < 50% |
|  | COc1cc2nc(C)cn2cc1C(=O)Nc1ccc(N2CCC(NCC3CC3)CC2)cc1F [Compound 136, N-(4-(4-((cyclopropylmethyl)amino)piperidin-1-yl)-2-fluorophenyl)-7-methoxy-2-methylimidazo[1,2-a]pyridine-6-carboxamide] | 50 to 75% |
| 1000 to 10000 nM | CCOc1cc2nc(C)cn2cc1C(=O)Nc1ccc(N2CC34CCCC3(CNC4)C2)nn1 (stereo not shown) [Compound 242] |  |
| 1000 to 10000 nM | CCOc1cc2nc(C)cn2cc1C(=O)Nc1ccc(N2CC(C)NCC2C)nn1 (stereo not shown) [Compound 281] |  |
|  | COc1c(C(=O)Nc2ccc(N3CCNCC3)cn2)cn2cc(C)nc2c1C [Compound 112, 7-methoxy-2,8-dimethyl-N-(5-(piperazin-1-yl)pyridin-2-yl)imidazo[1,2-a]pyridine-6-carboxamide] | < 50% |
|  | CCOc1cc2nn(C)cc2cc1C(=O)Nc1cnc(NCC[C@H]2CCNC2)cn1 [Compound 333] | < 50% |
| 1000 to 10000 nM | CCOc1cc2nn(C)cc2cc1C(=O)Nc1ccc(N2CCN(C3CCOCC3)[C@@H](C)C2)nn1 [Compound 301, 6-ethoxy-2-methyl-N-{6-[(3S)-3-methyl-4-(oxan-4-yl)piperazin-1-yl]pyridazin-3-yl}-2H-indazole-5-carboxamide] |  |
| 1000 to 10000 nM | CCOc1nc2nn(C)cc2cc1C(=O)Nc1cnc(N2CCNCC2)cn1 [Compound 742, 6-ethoxy-2-methyl-N-(5-(piperazin-1-yl)pyrazin-2-yl)-2H-pyrazolo[3,4-b]pyridine-5-carboxamide hydrochloride] |  |
|  | CCOc1cc2nc(C)cn2cc1C(=O)Nc1cnc(N2C[C@H]3CNC[C@H]3C2)nc1 [Compound 646] | 50 to 75% |
| < 1000 nM | COc1cc2nc(C)cn2cc1C(=O)Nc1ccc(N2CC3CNC(C3)C2)cc1F (stereo not shown) [Compound 155, N-(4-(3,6-diazabicyclo[3.2.1]octan-3-yl)-2-fluorophenyl)-7-methoxy-2-methylimidazo[1,2-a]pyridine-6-carboxamide] |  |
|  | CCOc1cc2nn(C)cc2cc1C(=O)Nc1cnc(N2CCOC3(CCNC3)C2)cn1 (stereo not shown) [Compound 341] | < 50% |
|  | COc1cc2nc(C)cn2cc1C(=O)Nc1ccc(N2CCC3(CCN3)C2)cc1F (stereo not shown) [Compound 171, N-(2-fluoro-4-(1,6-diazaspiro[3.4]octan-6-yl)phenyl)-7-methoxy-2-methylimidazo[1,2-a]pyridine-6-carboxamide] | > 75% |
|  | CCOc1cc2nn(C)cc2cc1C(=O)Nc1cnc(N2CCC3(CCNCC3)C2)nc1 [Compound 454] | < 50% |
| 1000 to 10000 nM | CCNC1COC2(C1)CN(c1ccc(NC(=O)c3cn4cc(C)nc4cc3OCC)nn1)C2 (stereo not shown) [Compound 297] |  |
|  | CCOc1cc2nn(C)cc2cc1C(=O)Nc1cnc(NC[C@H]2CCCNC2)nc1 [Compound 450] | < 50% |
| 1000 to 10000 nM | Cc1cn2cc(C(=O)Nc3ccc(N4CCN[C@@H](C)C4)nn3)nc(C)c2n1 [Compound 124, (S)-2,8-dimethyl-N-(6-(3-methylpiperazin-1-yl)pyridazin-3-yl)imidazo[1,2-a]pyrazine-6-carboxamide hydrochloride] |  |
|  | COc1cc2nc(C)cn2cc1C(=O)Nc1ccc(N(C)C2CCNCC2)cc1F [Compound 169, N-(2-fluoro-4-(methyl(piperidin-4-yl)amino)phenyl)-7-methoxy-2-methylimidazo[1,2-a]pyridine-6-carboxamide] | 50 to 75% |
|  | CCOc1cn2nc(C)cc2cc1C(=O)Nc1cnc(N2CCC(C(O)C3CCNCC3)CC2)nc1 (stereo not shown) [Compound 609] | < 50% |
| < 1000 nM | CCOc1cc2nn(C)cc2cc1C(=O)Nc1cnc(N2CCN[C@@H](C)C2)cn1 [Compound 710, (S)-6-ethoxy-2-methyl-N-(5-(3-methylpiperazin-1-yl)pyrazin-2-yl)-2H-indazole-5-carboxamide formate] |  |

| SMILES | IC50 | activation at 5 µM |
| --- | --- | --- |
| COc1cc2nc(C)cn2cc1C(=O)Nc1ccc(N2CC3CCC(C2)N3)cc1F [Compound 165, N-(4-(3,8-diazabicyclo[3.2.1]octan-3-yl)-2-fluorophenyl)-7-methoxy-2-methylimidazo[1,2-a]pyridine-6-carboxamide] | < 1000 nM |  |
| CCOc1cc2nc(C)cn2cc1C(=O)Nc1ccc(N(C)[C@@H]2C[C@H]3CC[C@@H](C2)N3)nn1 [Compound 256] | 1000 to 10000 nM |  |
